Measured values taken from patent US20110144125A1, “Anti-Arrhythmia Agents, Methods of Their Use, Methods of Their Identification and Kits Therefore” (THE UAB RESEARCH FOUNDATION, priority 2008, published 2011).

Tests used:
[1] = test system: rat left atrial appendage; assay: 2-APB-induced spontaneous mechanical activity (SMA/SMEs) in isolated superfused rat left atria / left atrial appendage; conditions: 3 Hz paced; data not shown
Method: Left atria were isolated from male Sprague-Dawley rats (325 to 400 g) under IP pentobarbital anesthesia (0.1 g/kg). Isolated left atria were superfused at 30° C. in Krebs-Henseleit (KH) buffer of the following mM composition: NaCl, 118; NaHCO3, 27; KCl, 4.8; MgSO4, 1.2; KH2PO4, 1.0; CaCl2, 1.8; and glucose, 11.1. Nearly isometric left atrial forces of contraction were measured as described.
Isolated superfused left atria were paced at 3 Hz. 2-APB was added to atrial superfusates from 0.015 or 0.15M DMSO stock solutions to achieve concentrations of 0, 2, 7.5, 15, or 22 μM (n=5 to 10 atria per concentration). Changes in atrial mechanical force were recorded during a subsequent 15 min superfusion.
Two groups of 5 to 6, 3 Hz paced atria were superfused in KH and exposed to 0 or 15 μM 2-APB for 10 min. The pacing stimulus was interrupted for 5 min and the number of spontaneous mechanical events (SMEs), defined as increases in mechanical force occurring in the absence of pacing, were measured as was the postrest potentiation response (PRP).
To determine whether diastolic interval affected the interaction between 2-APB and left atria, atrial pacing was decreased to 0.1 Hz, and 0, 7.5, or 22 μM 2-APB was added to the superfusate (n=6-8 per group). Superfusions continued for 15 min, and changes in atrial mechanical function were observed.
To establish whether SMA was reversible, atria (n=7) were paced at 0.1 Hz, exposed to 15 μM 2-APB for 10 min, and washed with KH. The effect of removing 2-APB on atrial mechanical function was recorded.
To test whether an anion transport inhibitor affected SMA, atria (n=7) were paced at 0.1 Hz in KH and exposed to 15 μM 2-APB. Following the appearance of SMA, they were titrated with 100 to 400 μM DIDS for 3 to 5 min at each concentration. Whether SMA occurred at the end of each titration period was recorded.
Left atria (n=10 per group) were paced at 0.1 Hz and treated with (i) 20 μM 2-APB for 10 min, (ii) with 30 nM isoproterenol for 5 min followed by 20 μM 2-APB for 10 min, and (iii) with 3 μM forskolin for 5 min followed by 20 μM 2-APB for 10 min.
The appendages then were titrated with increasing concentrations of 2-APB, and SMA was measured and recorded.
(§1) To determine the anti-arrhythmic activity of gossypol, isolated rat left atrial appendage and right ventricular muscle strips were used as model systems, as described above. Heart muscle was exposed to 20 μM 2-APB for 10 min to induce SMA, and rates of SMA were recorded as a percentage of initial SMA. The muscles then were titrated with up to 5 increasing concentrations of gossypol. Rates of SMA were recorded ˜10 min after the addition of concentration of the polyphenol.
To determine whether EGCG can prevent arrhythmia, rat left atrial appendages (n=9) were exposed to 20 μM 2-APB and rates of SMA were recorded. Groups of muscles (n=6 per) were pre-treated with 30 μM EGCG for 10 min following which they were exposed to 2-APB. Rates of SMA were recorded 10 min later.
as §1, with “whether EGCG is effective to reverse arrhythmia,” for “the anti-arrhythmic activity of gossypol,”, “Rat left atrial appendages were” for “Heart muscle was”, “left atrial appendages” for “muscles”, “the following polyphenols: EGCG, gossypol, resveratrol, and quercetin.” for “gossypol.”
To determine whether EGC can prevent arrhythmia, left atrial appendages (n=9) were exposed to 20 μM 2-APB and rates of SMA were recorded. Groups of appendages (n=6 per) were pre-treated with 30 μM EGC for 10 min following which they were exposed to 2-APB.

[2] = test system: right ventricular muscle strips and right or left ventricular papillary muscles; assay: Ventricular muscle model of SMA and STA; parameters: species or system rat; conditions: paced at 0.5 Hz, added to the superfusate in appropriate amounts
Excerpt: To further establish this model as a general test for arrhythmic and anti-arrhythmic agents, right ventricular muscle strips and right or left ventricular papillary muscles were isolated from anesthetized rats as cardiac muscle exemplars using methods known to persons skilled in the art. Additional exemplars could include ventricular or atrial conduction system cells and the SAN itself. These muscles were then superfused as described above and paced at 0.5 Hz.

[3] = test system: rat left atrial appendage; assay: ATXII-induced triggered activity and transition to automaticity in left atrial appendage
Excerpt: There are two types of afterdepolarizations; early afterdepolarizations (EADs) that occur early during repolarization and delayed afterdepolarizations (DADs) that occur in fully repolarized, resting myocytes (FIG. 4). Both EADs and DADs are defined as “triggered” activities as they require a preceding normal action potential to occur (FIG. 3B). One model to elicit EADs is to expose heart muscle or myocytes to Anemonia sulcata Toxin II (ATX II). This 47 amino acid peptide specifically enhances late sodium current and prolongs the action potential duration (FIG. 3D; middle panel). This leads to calcium loading of heart muscle followed by EADs during phase 2 or phase 3 of the action potential (FIGS. 3D & 5). These EADs, if of sufficient magnitude, produce ectopic mechanical events (FIG. 3B; ‡).
In embodiments of the assay an agent to induce arrhythmia will be introduced in the muscle. The arrhythmic agent may be chemical or physical. If the agent is chemical, it can be any chemical agent known by those skilled in the art to induce arrhythmia. The chemical agent will be introduced at a concentration sufficient to induce arrhythmia. If a certain type of arrhythmia is the subject of the assay (for example, triggered activity, tachycardia or any other type of arrhythmia), then the agent should be present at a concentration sufficient to produce the certain type of arrhythmia. One acceptable agent is anemone toxin II (“ATX II,”), the toxin of Anemone sulcata. ATX II is a sodium channel regulator.
It was tested whether the altered voltage-independent calcium homeostasis which 2-APB provokes is sufficient to initiate frank automaticity from triggered activity.

| Molecule | SMEs per min compared with 2-APB [1] | ventricular SMA [2] | ATXII concentration provoking automatic activity [3] [nM] | effect on action potential ([3]; 30 nM ATXII, paced at 1 Hz) | ATXII concentration inducing triggered activity / aftercontractions ([3]; paced left atrial appendages) [nM] |
| --- | --- | --- | --- | --- | --- |
| c1ccc(B(OB(c2ccccc2)c2ccccc2)c2ccccc2)cc1 [diphenyl boronic anhydride] | gave similar results | ventricular SMA was observed | – | – | – |
| ATXII: 47 amino acid peptide that enhances late sodium current and prolongs action potential duration | – | – | > 50 | prolongs action potential duration | < 50 |
